What was measured:
Format in all cases: in vivo
[1] = test system: dandelion, Taraxacum officinale (TAROF); test: Postemergent weed control field study, Pennsylvania 2004, TAROF; conditions: Granule formulation, g ai/Ha: penoxsulam 35, imazaquin 104, bispyribac-sodium 75, trifloxysulfuron-sodium 9.2, metsulfuron-methyl 10.4; for Percent Weed Control TAROF 29DAA: 29 Days After Application; for Percent Weed Control TAROF 56DAA: 56 Days After Application
Description: (§1) The ALS inhibiting herbicides are useful in controlling broadleaf weeds and sedges in turfgrass. They are particularly effective against most important weeds in this application, viz., white clover, Trifolium repens L. (TRFRE); buckhorn plantain, Plantago lanceolata L. (PLALA); dandelion, Taraxacum officinale (TAROF); broadleaf plantain, Plantago major L. (PLAMA); ground ivy, Glechoma hederacea L. (GLEHE); common lespedeza, Lespedeza striata (LESST); pennywort (dollarweed), Hydrocotyle spp (HYDSS); Virginia buttonweed, Diodia virginiana L. (DIQVI) English daisy, Bellis perennis L. (BELPE); annual bluegrass, Poa annua (POANN); and yellow nutsedge, Cypres esculentus L. (CYPES).
(§2) Field studies were conducted in established turfgrass sites containing a natural population of target broadleaf weeds. Replicated trials, containing a minimum of three replications and having individual plots ranging in size from 25 to 50 ft. sq (2.3 to 4.6 square meters), were initiated in the late spring when turf and weeds were actively growing. Granule treatments were uniformly applied to individual plots using a common hand-shaker method. Applications were made in the early morning when dew was present. Natural rainfall and supplemental irrigation were used to maintain healthy turf and active weed growth throughout the study period. Control of each weed species in the study site was made at approximately 2, 4 and 8 weeks after treatment. Control was determined visually by comparing treated and untreated weeds and scored on a 0 to 100 percent scale where 0 corresponds to no control and 100 corresponds to complete kill.

[2] = test system: white clover, Trifolium repens L. (TRFRE); test: Postemergent weed control field study, Pennsylvania 2004, TRFRE; conditions: g ai/Ha: penoxsulam 35, imazaquin 104, bispyribac-sodium 75, trifloxysulfuron-sodium 9.2, metsulfuron-methyl 10.4; for Percent Weed Control TRFRE 29DAA: 29 Days After Application; for Percent Weed Control TRFRE 56DAA: 56 Days After Application
Description: as §1
as §2, with “Granule treatments were uniformly applied to individual plots using a common hand-shaker method.” left out

[3] = test system: dandelion, Taraxacum officinale (TAROF); test: Postemergent weed control field study, Pennsylvania 2004, TAROF; conditions: Liquid formulation, g ai/Ha: penoxsulam 35, imazaquin 104, bispyribac-sodium 75, trifloxysulfuron-sodium 9.2, metsulfuron-methyl 10.4; for Percent Weed Control TAROF 29DAA: 29 Days After Application; for Percent Weed Control TAROF 56DAA: 56 Days After Application
tall fescue = test: Turf tolerance field study, tall fescue, Indiana 2004; conditions: 14 Days After Treatment, g ai/Ha: penoxsulam 35, imazaquin 104, bispyribac-sodium 75, trifloxysulfuron-sodium 9.2, metsulfuron-methyl 10.4; for Cover: 0 = bare ground, 100 = thick solid stand; for Color: 0 = brown to dead turf, 10 = lush green; for Injury: 0 = no visible injury, 10 = dead turf
Protocol: (§3) Turf tolerance studies were conducted in monoculture stands of perennial ryegrass and tall fescue. Replicated trials, containing a minimum of three replications and having individual plots ranging in size from 25 to 50 ft. sq (2.3 to 4.6 square meters), were initiated in the late spring when turf was actively growing. […] Natural rainfall and supplemental irrigation, fertilizer, fungicides and insecticides were used to maintain healthy turf throughout the study period. Turf tolerance evaluations were made weekly for 8 weeks after application. Evaluations compared treated and untreated plot areas and consisted of one or all of the following evaluations: 1) visual estimate of turf injury made on a 0 to 10 scale with 0 indicating no visible injury symptoms, 10 being dead turf and 3 or less being commercially acceptable; 2) visual estimate of turf color made on a 0 to 10 scale with 0 being brown to dead turf, 10 being a lush green turf of highest quality and 6.5 being commercially acceptable; 3) visual estimate of turf density made on a 0 to 100 scale with 0 being bare ground, 100 being a thick solid stand of highest quality and 90 percent density being commercially acceptable; 4) visual estimate of turf quality made on a 0 to 10 scale with 0 being brown to dead turf, 10 being a lush green turf of highest quality and 6.5 being commercially acceptable.

perennial ryegrass [4] = test: Perennial ryegrass turf quality field study, Pennsylvania 2004; conditions: perennial ryegrass, 0 = brown to dead turf, 10 = highest quality, g ai/Ha: penoxsulam 35, imazaquin 104, bispyribac-sodium 75, trifloxysulfuron-sodium 9.2, metsulfuron-methyl 10.4; for Turf Quality 4 DAA: 4 Days After Application; for Turf Quality 16 DAA: 16 Days After Application; for Turf Quality 36 DAA: 36 Days After Application
Protocol: as §3

[5] = test system: buckhorn plantain, Plantago lanceolata L. (PLALA); test: Postemergent weed control field study, Pennsylvania 2004, PLALA; conditions: g ai/Ha: penoxsulam 35, imazaquin 104, bispyribac-sodium 75, trifloxysulfuron-sodium 9.2, metsulfuron-methyl 10.4; for Percent Weed Control PLALA 29DAA: 29 Days After Application; for Percent Weed Control PLALA 56DAA: 56 Days After Application
Description: as §1
as §2, with “Granule treatments were uniformly applied to individual plots using a common hand-shaker method.” left out

[6] = test system: annual bluegrass, Poa annua (POANN); test: Postemergent weed control field study, Pennsylvania 2004, POANN; conditions: g ai/Ha: penoxsulam 35, imazaquin 104, bispyribac-sodium 75, trifloxysulfuron-sodium 9.2, metsulfuron-methyl 10.4; for Percent Weed Control POANN 29DAA: 29 Days After Application; for Percent Weed Control POANN 56DAA: 56 Days After Application
Description: as §1, §2

perennial ryegrass [7] = test: Turf tolerance field study, perennial ryegrass, Indiana 2004; conditions: 21 Days After Treatment, g ai/Ha: penoxsulam 35, imazaquin 104, bispyribac-sodium 75, trifloxysulfuron-sodium 9.2, metsulfuron-methyl 10.4; for Cover: 0 = bare ground, 100 = thick solid stand; for Color: 0 = brown to dead turf, 10 = lush green; for Injury: 0 = no visible injury, 10 = dead turf
Protocol: as §3

SMILES | Percent Weed Control TAROF 29DAA [1] [%] | Percent Weed Control TAROF 56DAA [1] [%] | Percent Weed Control TRFRE 29DAA ([2]; Granule formulation) [%] | Percent Weed Control TRFRE 29DAA ([2]; Liquid formulation) [%] | Percent Weed Control TRFRE 56DAA ([2]; Liquid formulation) [%] | Percent Weed Control TAROF 29DAA [3] [%] | Percent Weed Control TAROF 56DAA [3] [%] | Cover (tall fescue; Granule formulation) | Color (tall fescue; Granule formulation) | Injury (tall fescue; Granule formulation) | Cover (tall fescue; Liquid formulation) | Color (tall fescue; Liquid formulation) | Injury (tall fescue; Liquid formulation) | Turf Quality 4 DAA (perennial ryegrass [4]; Granule formulation) | Turf Quality 16 DAA (perennial ryegrass [4]; Granule formulation) | Turf Quality 36 DAA (perennial ryegrass [4]; Granule formulation) | Turf Quality 4 DAA (perennial ryegrass [4]; Liquid formulation) | Turf Quality 16 DAA (perennial ryegrass [4]; Liquid formulation) | Turf Quality 36 DAA (perennial ryegrass [4]; Liquid formulation) | Percent Weed Control PLALA 29DAA ([5]; Granule formulation) [%] | other results
COc1cc(OC)nc(Oc2cccc(Oc3nc(OC)cc(OC)n3)c2C(=O)O)n1 [Bispyribac-sodium, bispyribac-sodium] | 45.0 | 23.3 | 36.1 | 88.9 | 55.6 | 95.7 | 57.1 | 100.0 0-100 Scale | 9.0 0-10 Scale | 0.0 0-10 Scale | 97.5 0-100 Scale | 8.8 0-10 Scale | 2.0 0-10 Scale | 8.7 0 to 10 scale | 7.3 0 to 10 scale | 10.0 0 to 10 scale | 8.0 0 to 10 scale | 5.7 0 to 10 scale | 10.0 0 to 10 scale | 27.8 | Percent Weed Control PLALA 56DAA ([5]; Granule formulation): 27.8%; Percent Weed Control PLALA 29DAA ([5]; Liquid formulation): 75.6%; Percent Weed Control PLALA 56DAA ([5]; Liquid formulation): 57.8%; Percent Weed Control POANN 29DAA ([6]; Granule formulation): 40.0%; Percent Weed Control POANN 56DAA ([6]; Granule formulation): 28.9%; Percent Weed Control POANN 29DAA ([6]; Liquid formulation): 28.3%; Percent Weed Control POANN 56DAA ([6]; Liquid formulation): 23.3%; Cover (perennial ryegrass [7]; Granule formulation): 100.0 0-100 Scale; Color (perennial ryegrass [7]; Granule formulation): 8.5 0-10 Scale; Injury (perennial ryegrass [7]; Granule formulation): 1.0 0-10 Scale; Cover (perennial ryegrass [7]; Liquid formulation): 85.0 0-100 Scale; Color (perennial ryegrass [7]; Liquid formulation): 6.5 0-10 Scale; Injury (perennial ryegrass [7]; Liquid formulation): 4.5 0-10 Scale
CC(C)C1(C)N=C(c2nc3ccccc3cc2C(=O)O)NC1=O (stereo not shown) [Imazaquin, imazaquin] | 13.9 | 17.8 | 0.0 | 22.2 | 11.1 | 58.9 | 11.1 | 100.0 0-100 Scale | 9.0 0-10 Scale | 0.5 0-10 Scale | 70.0 0-100 Scale | 5.3 0-10 Scale | 5.3 0-10 Scale | 10.0 0 to 10 scale | 3.0 0 to 10 scale | 3.3 0 to 10 scale | 7.7 0 to 10 scale | 3.3 0 to 10 scale | 7.7 0 to 10 scale | 22.2 | Percent Weed Control TRFRE 56DAA ([2]; Granule formulation): 23.3%; Percent Weed Control PLALA 56DAA ([5]; Granule formulation): 41.1%; Percent Weed Control PLALA 29DAA ([5]; Liquid formulation): 16.7%; Percent Weed Control PLALA 56DAA ([5]; Liquid formulation): 8.3%; Percent Weed Control POANN 29DAA ([6]; Granule formulation): 31.4%; Percent Weed Control POANN 56DAA ([6]; Granule formulation): 18.1%; Percent Weed Control POANN 29DAA ([6]; Liquid formulation): 8.8%; Percent Weed Control POANN 56DAA ([6]; Liquid formulation): 26.2%; Cover (perennial ryegrass [7]; Granule formulation): 98.8 0-100 Scale; Color (perennial ryegrass [7]; Granule formulation): 8.8 0-10 Scale; Injury (perennial ryegrass [7]; Granule formulation): 1.8 0-10 Scale; Cover (perennial ryegrass [7]; Liquid formulation): 97.5 0-100 Scale; Color (perennial ryegrass [7]; Liquid formulation): 8.3 0-10 Scale; Injury (perennial ryegrass [7]; Liquid formulation): 3.3 0-10 Scale

— patent US7799343B2, “Safer control of broadleaf weeds in turf with granular formulations of ALS inhibiting herbicides” (priority 2006, dated 2010)
